# Source: publication PMC12362764, “Novel Cyano‐Artemisinin Dimer ZQJ29 Targets PARP1 to Induce Ferroptosis in Pancreatic Cancer Treatment” (Advanced Science, 2025)
# Assay: Toxicity in tumor-bearing mice (body weight, ALT/AST, H&E)
# Type: in vivo, BALB/c nude mice
# Protocol: Five‐week‐old male BALB/c nude mice were purchased from Shanghai Jihui Laboratory Animal Breeding Co., Ltd. (Shanghai, China). After a one‐week acclimatization period, PANC‐1 cells were subcutaneously injected at a dose of 5 × 10^6 cells per mouse. Four weeks post‐injection, once tumor volumes reached 50–100 mm^3, the tumor‐bearing animals were randomly divided into four groups, each consisting of six animals. ZQJ29 was prepared in a 0.5% CMC‐Na solution, while OXA was dissolved in saline. The control group was treated with oral gavage of 0.5% CMC‐Na, while the positive control group was administered intraperitoneal injections of OXA at a dosage of 3 mg kg^−1 every three days. The test groups were treated with oral gavage of ZQJ29 at dosages of 25 and 50 mg kg day^−1. Mouse weights were monitored every other day. Tumor measurements were taken every other day using calipers, and the tumor volume was calculated using the following formula: ½ × length × width^2. Drug administered continued for three weeks. After blood collection at the end of the administration, the mice were humanely euthanized, and their vital organs were promptly harvested, preserved, and embedded in paraffin for H&E staining.
# Following the experiments, organs from mice, including hearts, livers, spleens, lungs, and kidneys were swiftly collected and fixed in 4% paraformaldehyde overnight. The tissues were then embedded in paraffin. Afterward, 4‐µm‐thick sections were produced and stained using H&E. Images of these sections were captured with a Leica DM4000b microscope (Germany).
# Blood samples were collected and placed in a biochemical incubator for 30 min, followed by centrifugation at 6000 rpm for 10 min. The supernatant was used to measure the following indicators: ALT and AST (both from Jiancheng, Nanjing, China).
smiles,measurement,setting,value
CC1CCC2C(C)C(OCCN(C#N)CCOC3OC4OC5(C)CCC6C(C)CCC(C3C)C46OO5)OC3OC4(C)CCC1C32OO4 (stereo not drawn) [ZQJ29],post-experiment levels of ALT and AST,"ZQJ29 50 mg/kg, OXA 3 mg/kg i.p.",no significant alterations
same,major organ damage (H&E staining),"hearts, livers, spleens, lungs, kidneys",no significant major organ damage
same,body weight during the whole treatment period,"tumor-bearing nude mice, three weeks",remained stable
